Several values for one entry are separate records, joined by “and”; a condition that tells them apart may be missing. Identical values can stand only once. Like-named read-outs stand apart in the source and are kept apart here.
How the values were obtained:
[1] = system: Dengue virus Type 2 (New Guinea C strain); experiment: microbe, parasite or virus in culture; format: cell-based; conditions: for EC50: Dengue virus, Vero 76, read-out: EC50 (mean 50% effective, virus-inhibitory concentration ± SD)
[2] = system: Chikungunya virus (S27 strain); experiment: microbe, parasite or virus in culture; format: cell-based; conditions: for EC50: Chikungunya virus, Vero 76, read-out: EC50 (mean 50% effective, virus-inhibitory concentration ± SD)
[3] = system: Junin virus (Candid #1 strain); format: cell-based
in vitro = conditions: African green monkey
[4] = system: proliferating, uninfected Vero 76 cells

With `COc1c(C)c2c(c(O)c1C/C=C(\C)CCC(=O)O)C(=O)OC2` [Mycophenolic acid, mycophenolic acid] as the compound, how does the “SI (Selectivity Index, CC50/EC50)” value [1] read?
Its value is >22.

And the EC50 [1]?
The EC50 was 4.5 ± 6.6 µM.

What about the “Inhibition of chikungunya virus (in words)” value [2] of the same compound?
The value was “inhibited”.

What about the “SI (Selectivity Index, CC50/EC50)” value [2] of the same compound?
Its value is >61.

What about the EC50 [2] of the same compound?
Its EC50 is 1.6 ± 1.7 µM.

And the “Inhibition of Junin virus (in words)” value [3]?
The value was “inhibited”.

What about the “SI (Selectivity Index, CC50/EC50)” value [3] of the same compound?
The value was >100.

And the CC50 (in vitro; CC50, range over the dyes)?
The CC50 was 0.8 to 2.5 µM.

What about the “Mean 50% cytotoxic concentration ± SD, ALB-Abs” value ([4]; 4 days, N=3) of the same compound?
The value was 1.4 ± 0.3 µM and 1.2 ± 0.2 µM.

And the “Mean 50% cytotoxic concentration ± SD, ALB-Fluor” value ([4]; 4 days, N=3)?
The value was 1.9 ± 0.1 µM and 2.5 ± 0.5 µM.

What about the “Mean 50% cytotoxic concentration ± SD, Neutral Red” value ([4]; 4 days, N=3) of the same compound?
The value was 0.8 ± 0.6 µM.

What about the “Mean 50% cytotoxic concentration ± SD, Viral ToxGlo” value ([4]; 4 days, N=3) of the same compound?
Its value is 0.7 ± 0.2 µM.

What about the “Mean 50% cytotoxic concentration ± SD, WST-1” value ([4]; 4 days, N=3) of the same compound?
The value was 0.5 ± 0.1 µM.

Which “SI (Selectivity Index, CC50/EC50)” value [1] does the source give for `Nc1cc2nc[nH]c2c(=O)[nH]1` [3-Deazaguanine] here?
Its value is >22.

What about the EC50 [1] of the same compound?
Its EC50 is 4.6 ± 6.3 µM.

And the “Inhibition of chikungunya virus (in words)” value [2]?
Its value is “inhibited”.

What about the “SI (Selectivity Index, CC50/EC50)” value [2] of the same compound?
The value was >8.

What about the EC50 [2] of the same compound?
The EC50 was 13 ± 8.3 µM.

And the “Inhibition of Junin virus (in words)” value [3]?
Its value is “inhibited”.

What about the “SI (Selectivity Index, CC50/EC50)” value [3] of the same compound?
Its value is >63.

What about the CC50 (in vitro; CC50 with ALB-F) of the same compound?
The CC50 was 83 to 93 µM.

And the CC50 (in vitro; CC50 with all other dyes including ALB-A)?
The CC50 was 2.4 to 7 µM.

And the “Mean 50% cytotoxic concentration ± SD, Neutral Red” value ([4]; African green monkey)?
The value was 3.0 ± 1.1 µM.

What about the “Mean 50% cytotoxic concentration ± SD, Viral ToxGlo” value ([4]; African green monkey) of the same compound?
Its value is 1.5 ± 0.7 µM.

Which results are given for `Nc1ncnc2c([C@@H]3N[C@H](CO)[C@@H](O)[C@H]3O)c[nH]c12` [BCX4430]?
Inhibition of dengue virus (in words) [1]: weak dengue-inhibitory activity; SI (Selectivity Index, CC50/EC50) [1]: >3; EC50 [1]: 37 ± 22 µM; EC50 [2]: > 100 µM

For `C#Cc1c(C(N)=O)ncn1[C@@H]1O[C@H](CO)[C@@H](O)[C@H]1O` [EICAR, 5-ethynyl-1-beta-D-ribofuranosylimidazole-4-carboxamide], which “SI (Selectivity Index, CC50/EC50)” value [1] is on record?
Its value is >8.

What about the EC50 [1] of the same compound?
The EC50 was 13.3 ± 22.1 µM.

What about the “Inhibition of chikungunya virus (in words)” value [2] of the same compound?
Its value is “inhibited”.

And the “SI (Selectivity Index, CC50/EC50)” value [2]?
Its value is >10.

What about the EC50 [2] of the same compound?
Its EC50 is 10.3 ± 13 µM.

What about the “Inhibition of Junin virus (in words)” value [3] of the same compound?
The value was “inhibited”.

What about the “SI (Selectivity Index, CC50/EC50)” value [3] of the same compound?
The value was >52.

And the CC50 (in vitro; CC50, range over the dyes)?
The CC50 was 1.5 to 8.9 µM.

And the “Mean 50% cytotoxic concentration ± SD, ALB-Abs” value ([4]; 4 days, N=3)?
The value was 4.9 ± 1.4 µM and 3.9 ± 1.3 µM.

What about the “Mean 50% cytotoxic concentration ± SD, ALB-Fluor” value ([4]; 4 days, N=3) of the same compound?
The value was 9.5 ± 4.2 µM and 8.2 ± 2.2 µM.

What about the “Mean 50% cytotoxic concentration ± SD, Neutral Red” value ([4]; 4 days, N=3) of the same compound?
The value was 2.9 ± 1.0 µM.

And the “Mean 50% cytotoxic concentration ± SD, Viral ToxGlo” value ([4]; 4 days, N=3)?
Its value is 2.7 ± 1.4 µM.

And the “Mean 50% cytotoxic concentration ± SD, WST-1” value ([4]; 4 days, N=3)?
Its value is 2.8 ± 1.1 µM and 3.9 ± 1.3 µM.

Which results are given for `NC(=O)c1csc([C@@H]2O[C@H](CO)[C@@H](O)[C@H]2O)n1` [Tiazofurin]?
Inhibition of dengue virus (in words) [1]: ineffective; EC50 [1]: > 100 µM; Inhibition of chikungunya virus (in words) [2]: ineffective; EC50 [2]: > 100 µM; Inhibition of Junin virus (in words) [3]: ineffective

What does the source list for `NC(=O)c1nc(F)c[nH]c1=O` [Favipiravir]?
EC50 [1]: > 100 µM; EC50 [2]: > 100 µM; Inhibition of Junin virus (in words) [3]: inhibited; SI (Selectivity Index, CC50/EC50) [3]: >23

With `O=c1cnn([C@@H]2O[C@H](CO)[C@@H](O)[C@H]2O)c(=O)[nH]1` [6-Azauridine] as the compound, how does the “SI (Selectivity Index, CC50/EC50)” value [1] read?
Its value is >12.

What about the EC50 [1] of the same compound?
The EC50 was 8.4 ± 10.8 µM.

What about the “Inhibition of chikungunya virus (in words)” value [2] of the same compound?
The value was “inhibited”.

And the “SI (Selectivity Index, CC50/EC50)” value [2]?
Its value is >13.

What about the EC50 [2] of the same compound?
Its EC50 is 8 ± 10.4 µM.

What about the “Inhibition of Junin virus (in words)” value [3] of the same compound?
Its value is “inhibited”.

And the “SI (Selectivity Index, CC50/EC50)” value [3]?
The value was >151.

And the CC50 (in vitro; CC50 (toxicity) with ALB-A and ALB-F)?
Its CC50 is 48 to 92 µM.

And the CC50 (in vitro; CC50 (toxicity) with NR, VTG, and WST-1)?
Its CC50 is 6.1 to 17.5 µM.

And the “Mean 50% cytotoxic concentration ± SD, ALB-Abs” value ([4]; 4 days, N=3)?
Its value is 48.0 ± 11.5 µM and 48.0 ± 19.9 µM.

What about the “Mean 50% cytotoxic concentration ± SD, ALB-Fluor” value ([4]; 4 days, N=3) of the same compound?
The value was 69.0 ± 10.5 μM and 94.0 ± 10.4 ^*^, ^φ μM.

And the “Mean 50% cytotoxic concentration ± SD, Neutral Red” value ([4]; 4 days, N=3)?
Its value is 6.2 ± 0.9 µM.

What about the “Mean 50% cytotoxic concentration ± SD, Viral ToxGlo” value ([4]; 4 days, N=3) of the same compound?
The value was 17.0 ± 5.3 µM.

And the “Mean 50% cytotoxic concentration ± SD, WST-1” value ([4]; 4 days, N=3)?
The value was 6.2 ± 1.0 μM and 7.1 ± 1.8 ^b μM.

Which EC50 [1] does the source give for `NC(=O)c1ncn([C@@H]2O[C@H](CO)[C@@H](O)[C@H]2O)n1` [Ribavirin, 1-beta-D-ribofuranosyl-1,2,4-triazole-3-carboxamide] here?
Its EC50 is > 100 µM.

What about the EC50 [2] of the same compound?
Its EC50 is > 100 µM.

What about the “Inhibition of Junin virus (in words)” value [3] of the same compound?
The value was “inhibited”.

And the “SI (Selectivity Index, CC50/EC50)” value [3]?
The value was >7.
